Source: PubChem BioAssay (NCI)
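These data come from cells grown in 96-well plates and exposed to compound for 48 hours at five concentrations. The concentration for full growth arrest is given as TGI.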

What was measured:
Assay in all cases: NCI anticancer screen, dose series, 48 h
OVCAR-8 ovarian = system: OVCAR-8 ovarian
SF-539 CNS = system: SF-539 CNS
CCRF-CEM leukemia = system: CCRF-CEM leukemia
CAKI-1 renal = system: CAKI-1 renal
SW-620 colon = system: SW-620 colon
UO-31 renal = system: UO-31 renal
HCT-116 colon = system: HCT-116 colon
A549 NSCLC = system: A549 NSCLC
SK-MEL-5 melanoma = system: SK-MEL-5 melanoma
HOP-92 NSCLC = system: HOP-92 NSCLC

Compound	TGI (OVCAR-8 ovarian)	TGI (SF-539 CNS)	TGI (CCRF-CEM leukemia)	TGI (CAKI-1 renal)	TGI (SW-620 colon)	TGI (UO-31 renal)	TGI (HCT-116 colon)	TGI (A549 NSCLC)	TGI (SK-MEL-5 melanoma)	TGI (HOP-92 NSCLC)
CCOC(=O)/C=C1\Nc2ccccc2C12CCc1c([nH]c3ccccc13)C2C(=O)OCC (configuration not stated)	> 100 µM	> 100 µM	> 100 µM	> 100 µM	> 100 µM	> 100 µM	> 100 µM	> 100 µM	> 100 µM	–
Oc1ccc(-c2c3c(nc4c2CCc2ccc(Br)cc2-4)-c2cc(Br)ccc2CC3)cc1	–	–	–	33 µM	–	38.4 µM	53.7 µM	40.8 µM	35.7 µM	31.1 µM
COc1cc(C2SCC(=O)N2NC(=O)c2ccc(NC(C)=O)cc2)cc(OC)c1OC (configuration not stated)	> 100 µM	> 100 µM	–	–	> 100 µM	> 100 µM	> 100 µM	> 100 µM	> 100 µM	> 100 µM
COc1ccc(C(=O)Cc2cc(OC)ccc2OC)cc1	> 100 µM	> 100 µM	> 100 µM	> 100 µM	> 100 µM	> 100 µM	> 100 µM	> 100 µM	> 100 µM	–
Cc1cc(S(=O)(=O)Nc2n[nH]c(Nc3ccccc3)n2)c(S)cc1Cl	> 10 µM	> 10 µM	> 10 µM	> 10 µM	> 10 µM	> 10 µM	> 10 µM	> 10 µM	> 10 µM	–
COc1ccc(/C=N/Nc2[nH]c(=S)nc3[nH]ncc23)cc1	> 100 µM	> 100 µM	> 100 µM	> 100 µM	> 100 µM	> 100 µM	> 100 µM	> 100 µM	> 100 µM	–
C=C[C@]1(C)CC[C@]2(C)C(CC[C@@]3(C)C2C[C@H](O)[C@H](O)[C@@]3(C)O)C1 (some centres not stated)	> 100 µM	> 100 µM	> 100 µM	> 100 µM	> 100 µM	> 100 µM	> 100 µM	> 100 µM	> 100 µM	–
CC(=O)O[C@]12CCCCCCC1C1(O)C(O)CCC[C@H]12 (some centres not stated)	> 100 µM	–	> 100 µM	–	> 100 µM	> 100 µM	> 100 µM	> 100 µM	> 100 µM	–
CCCCCCCCCCCCC(=O)NCC(=O)NC(Cc1ccccc1)C(=O)Oc1ccc([N+](=O)[O-])cc1 (configuration not stated)	> 100 µM	> 100 µM	68.7 µM	> 100 µM	> 100 µM	> 100 µM	> 100 µM	> 100 µM	> 100 µM	–
Cc1ccc2ccccc2c1CC1S(=O)(=O)OCCOS1(=O)=O	37.1 µM	–	27.1 µM	24.4 µM	–	27.1 µM	26 µM	29.6 µM	26.4 µM	–
CCOC(=O)C1C/C(C)=C(/C)SCCCS1 (configuration not stated)	> 100 µM	> 100 µM	–	–	> 100 µM	> 100 µM	> 100 µM	> 100 µM	> 100 µM	> 100 µM
O=C1c2cc(Cl)ccc2-n2c(noc2=O)C2CSCN12 (configuration not stated)	> 100 µM	–	> 100 µM	> 100 µM	> 100 µM	> 100 µM	> 100 µM	> 100 µM	> 100 µM	–
COc1ccc(Cn2nc(OCc3ccccn3)c3cc([N+](=O)[O-])ccc32)cc1	> 100 µM	> 100 µM	> 100 µM	> 100 µM	> 100 µM	> 100 µM	–	> 100 µM	> 100 µM	–
Cn1c(N)c(/C=N/NC(=O)CC#N)c(=O)n(C)c1=O	> 100 µM	–	> 100 µM	> 100 µM	> 100 µM	> 100 µM	> 100 µM	> 100 µM	> 100 µM	–
CC(C)=CC(=O)O[C@@H]1CC(C)(C)CC2C3=CCC4[C@]56CC[C@](O)(OC5)C(C)(C)C6CC[C@@]4(C)C3(C)CC[C@]21C(=O)O (some centres not stated)	> 100 µM	> 100 µM	> 100 µM	> 100 µM	> 100 µM	–	> 100 µM	> 100 µM	> 100 µM	–
COc1cc(C2C(Cl)C(=O)N2c2ccc(Br)cc2)cc(I)c1O (configuration not stated)	> 100 µM	> 100 µM	> 100 µM	> 100 µM	> 100 µM	> 100 µM	> 100 µM	> 100 µM	> 100 µM	–
Cc1nc2c(n1Cc1ccc(Cl)cc1)C(=O)c1ccccc1C2=O	> 75 µM	> 75 µM	> 75 µM	–	–	> 75 µM	> 75 µM	> 75 µM	> 75 µM	–
C#CC(C)(C)Oc1cc(OC)c2c(=O)c3ccccc3n(C)c2c1	68 µM	76 µM	27.5 µM	–	> 100 µM	22.5 µM	> 100 µM	74.1 µM	23.4 µM	–
CSc1c(C(C)=O)c(O)n(-c2ccc(Cl)cc2)c(=O)c1C#N	> 100 µM	> 100 µM	54.3 µM	53.2 µM	> 100 µM	84.6 µM	> 100 µM	> 100 µM	> 100 µM	–
CC(=O)N(C(C)=O)n1c(Cc2ccc(Cl)cc2)nn(C(C)=O)c1=O	> 100 µM	> 100 µM	> 100 µM	–	> 100 µM	> 100 µM	–	> 100 µM	> 100 µM	–
